# Like-named read-outs stand apart in the source and are kept apart here.
# System: CT-26 mourine tumor cells
# Details: for survival rate of mice: FIG. 8
# Description: Female BALB/c mice (average weight: 20 g) were injected subcutaneously in the flank with CT-26 mourine tumor cells (5×10^4 cells/mouse). When the tumor was growing to the size of 3 mm×3 mm, the mice were divided into two groups; an experimental group and a control group. Each group was filled with 8 mice having a tumor and they were marked in their ears for the observation. 15 days after the transplantation, the administration (an intravenous injection) of drug and vehicle began. Each test drug was administered both with low dose of 2 mg/kg and with high dose of 10 mg/kg every three days four times total for 12 days. Only vehicle (cremophor:dehydrated ethyl alcohol, 1:1 v/v) was administered to a control group. Death rate of mice was checked every day and the growth of a tumor was measured using caliper measurement device at two or three day interval. Tumor volume was calculated by the following Formula 2. Tumor volume: mm^3=(Length×Width^2)/2 <Formula 2>
# A drug or a vehicle was injected into tail vein of a mouse two weeks after tumor transplantation.
# Tumor volume was measured from the 15th day after tumor cell transplantation.
structure (smiles),measurement,setting,value
CC(=O)O[C@H]1C(=O)[C@@]2(C)[C@H]([C@H](OC(=O)c3ccccc3)[C@]3(O)C[C@H](OC(=O)[C@H](O)[C@@H](NC(=O)c4ccccc4)c4ccccc4)C(C)=C1C3(C)C)[C@]1(OC(C)=O)CO[C@@H]1C[C@@H]2O [paclitaxel],time for which tumor growth was inhibited before regrowth,"10 mg/kg i.v., CT-26 tumor mice, FIG. 9",30 days
same,survival rate of mice,"high dose 10 mg/kg i.v. every three days four times, CT-26 tumor mice",not much different from each other
same,tumor volume / anticancer activity,"high dose 10 mg/kg i.v., CT-26 tumor mice, FIG. 9",remarkably decreased
same,survival rate of mice,"low dose 2 mg/kg i.v. every three days four times, CT-26 tumor mice",not much different from each other
same,tumor volume / tumor growth,"low dose 2 mg/kg i.v., CT-26 tumor mice, FIG. 9",not much different between them
same,weight changes of mice,"mouse, in vivo",not significantly different
